Literature values in publication PMC3575012 (Scientific Reports, 2013).

Experiments:
[1] = system: amyloid precursor protein; conditions: stated as known, explained by buried free N-terminus of Aβ; ref not given
Alzheimer's disease = conditions: cohort of patients suffering “mild” AD; ref not given

| binding preference (plaque deposited Aβ) | Substance | cross reactivity with the amyloid precursor protein [1] | cognitive improvement (Alzheimer's disease) |
| --- | --- | --- | --- |
| Preferential binding | Bapineuzumab | lack of cross reactivity | – |
| – | Solanezumab | – | small but significant cognitive improvement |
